Patent publication US12304890B2, “R-type pyridyloxycarboxylic acid, salt and ester derivative thereof, and preparation method therefor, and herbicidal composition and application thereof” (Qingdao Kingagroot Chemical Compound Co., Ltd., priority 2018, dated 2025)

Key:
Type in all cases: in vivo
Echinochloa crusgalli = test: Post-emergence test experiment, Echinochloa crusgalli; settings: 1000 g a.i./ha, 3 weeks in greenhouse, fresh weight inhibition
Summary of the method: (§1)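 Pot-grown plants, sown 2 weeks earlier and at 2-3 leaves, received a foliar spray of compound in acetone/tween-80 with methyl oleate adjuvant. Effect was expressed as fresh weight inhibition rate after three further greenhouse weeks.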

Digitaria sanguinalis = test: Post-emergence test experiment, Digitaria sanguinalis; settings: 1000 g a.i./ha, 3 weeks in greenhouse, fresh weight inhibition
Summary of the method: as §1

[1] = system: Monocotyledonous and dicotyledonous weed seeds and main crop seeds; test: Post-emergence test experiment, other weeds and crops (Table 4, 1000 g a.i./ha); settings: 3 weeks in greenhouse, fresh weight inhibition
Summary of the method: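 Weed and crop seeds (wheat, corn, rice, soybean, cotton, oilseed, millet, sorghum) sown in soil pots in a greenhouse and sprayed at 2-3 leaf stage, 2 weeks after sowing. Compound in acetone/tween-80 with methyl oleate concentrate (1.5 L/ha) as synergist. Effect recorded as fresh-weight growth inhibition rate.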

| SMILES | Activity level (growth inhibition rate), Echinochloa crusgalli (Echinochloa crusgalli) | Activity level (growth inhibition rate), Digitaria sanguinalis (Digitaria sanguinalis) | Activity level (growth inhibition rate), Abutilon theophrasti Medic. [1] | Activity level (growth inhibition rate), Galium aparine [1] | Activity level (growth inhibition rate), Monochoria Vaginalis [1] |
| --- | --- | --- | --- | --- | --- |
| CC(C)CCCOC(=O)[C@@H](C)Oc1nc(F)c(Cl)c(N)c1Cl [Compound 2-107] | 5 (Level 5: the growth inhibition rate is greater than 85%) | 5 (Level 5: the growth inhibition rate is greater than 85%) | 5 (Level 5: the growth inhibition rate is greater than 85%) | 5 (Level 5: the growth inhibition rate is greater than 85%) | 5 (Level 5: the growth inhibition rate is greater than 85%) |
| CCCCC(CC)CSC(=O)[C@@H](C)Oc1nc(F)c(Cl)c(N)c1Cl (stereo partly drawn) [Compound 2-158] | 5 (Level 5: the growth inhibition rate is greater than 85%) | 5 (Level 5: the growth inhibition rate is greater than 85%) | 5 (Level 5: the growth inhibition rate is greater than 85%) | 5 (Level 5: the growth inhibition rate is greater than 85%) | 5 (Level 5: the growth inhibition rate is greater than 85%) |
| CCCC(C)CSC(=O)[C@@H](C)Oc1nc(F)c(Cl)c(N)c1Cl (stereo partly drawn) [Compound 2-104] | 5 (Level 5: the growth inhibition rate is greater than 85%) | 5 (Level 5: the growth inhibition rate is greater than 85%) | 5 (Level 5: the growth inhibition rate is greater than 85%) | 5 (Level 5: the growth inhibition rate is greater than 85%) | 5 (Level 5: the growth inhibition rate is greater than 85%) |
| CC(Oc1nc(F)c(Cl)c(N)c1Cl)C(=O)OCc1ccccc1F (stereo not drawn) [Compound 2-308] | 5 (Level 5: the growth inhibition rate is greater than 85%) | 5 (Level 5: the growth inhibition rate is greater than 85%) | 5 (Level 5: the growth inhibition rate is greater than 85%) | 5 (Level 5: the growth inhibition rate is greater than 85%) | 5 (Level 5: the growth inhibition rate is greater than 85%) |
| CC(Oc1nc(F)c(Cl)c(N)c1Cl)C(=O)OCc1ccc(Cl)cc1 (stereo not drawn) [Compound 2-318] | 5 (Level 5: the growth inhibition rate is greater than 85%) | 5 (Level 5: the growth inhibition rate is greater than 85%) | 5 (Level 5: the growth inhibition rate is greater than 85%) | 5 (Level 5: the growth inhibition rate is greater than 85%) | 5 (Level 5: the growth inhibition rate is greater than 85%) |
| CC(C)SC(=O)[C@@H](C)Oc1nc(F)c(Cl)c(N)c1Cl [Compound 2-76] | 5 (Level 5: the growth inhibition rate is greater than 85%) | 5 (Level 5: the growth inhibition rate is greater than 85%) | 5 (Level 5: the growth inhibition rate is greater than 85%) | 5 (Level 5: the growth inhibition rate is greater than 85%) | 5 (Level 5: the growth inhibition rate is greater than 85%) |
| CC(C)CSC(=O)[C@@H](C)Oc1nc(F)c(Cl)c(N)c1Cl [Compound 2-80] | 5 (Level 5: the growth inhibition rate is greater than 85%) | 5 (Level 5: the growth inhibition rate is greater than 85%) | 5 (Level 5: the growth inhibition rate is greater than 85%) | 5 (Level 5: the growth inhibition rate is greater than 85%) | 5 (Level 5: the growth inhibition rate is greater than 85%) |
| CC(Oc1nc(F)c(Cl)c(N)c1Cl)C(=O)O.CN(C)CCO (stereo not drawn) [Compound 2-14] | 5 (Level 5: the growth inhibition rate is greater than 85%) | 5 (Level 5: the growth inhibition rate is greater than 85%) | 5 (Level 5: the growth inhibition rate is greater than 85%) | 5 (Level 5: the growth inhibition rate is greater than 85%) | 5 (Level 5: the growth inhibition rate is greater than 85%) |
| COCCOC(=O)C(C)Oc1nc(C)c(Cl)c(N)c1Cl (stereo not drawn) [Compound 2-270] | 5 (Level 5: the growth inhibition rate is greater than 85%) | 5 (Level 5: the growth inhibition rate is greater than 85%) | 5 (Level 5: the growth inhibition rate is greater than 85%) | 5 (Level 5: the growth inhibition rate is greater than 85%) | 5 (Level 5: the growth inhibition rate is greater than 85%) |
| COC(=O)CSC(=O)C(C)Oc1nc(F)c(Cl)c(N)c1Cl (stereo not drawn) [Compound 2-290] | 5 (Level 5: the growth inhibition rate is greater than 85%) | 5 (Level 5: the growth inhibition rate is greater than 85%) | 5 (Level 5: the growth inhibition rate is greater than 85%) | 5 (Level 5: the growth inhibition rate is greater than 85%) | 5 (Level 5: the growth inhibition rate is greater than 85%) |
| C[C@@H](Oc1nc(F)c(Cl)c(N)c1Cl)C(=O)OCCF [Compound 2-276] | 5 (Level 5: the growth inhibition rate is greater than 85%) | 5 (Level 5: the growth inhibition rate is greater than 85%) | 5 (Level 5: the growth inhibition rate is greater than 85%) | 5 (Level 5: the growth inhibition rate is greater than 85%) | 5 (Level 5: the growth inhibition rate is greater than 85%) |
| C[C@@H](Oc1nc(F)c(Cl)c(N)c1Cl)C(=O)OCc1cccs1 [Compound 2-350] | 5 (Level 5: the growth inhibition rate is greater than 85%) | 5 (Level 5: the growth inhibition rate is greater than 85%) | 5 (Level 5: the growth inhibition rate is greater than 85%) | 5 (Level 5: the growth inhibition rate is greater than 85%) | 5 (Level 5: the growth inhibition rate is greater than 85%) |
| CCCCCCCCSC(=O)[C@@H](C)Oc1nc(F)c(Cl)c(N)c1Cl [Compound 2-156] | 5 (Level 5: the growth inhibition rate is greater than 85%) | 5 (Level 5: the growth inhibition rate is greater than 85%) | 5 (Level 5: the growth inhibition rate is greater than 85%) | 5 (Level 5: the growth inhibition rate is greater than 85%) | 5 (Level 5: the growth inhibition rate is greater than 85%) |
| CC(Oc1nc(F)c(Cl)c(N)c1Cl)C(=O)SCc1ccccc1Cl (stereo not drawn) [Compound 2-315] | 5 (Level 5: the growth inhibition rate is greater than 85%) | 5 (Level 5: the growth inhibition rate is greater than 85%) | 5 (Level 5: the growth inhibition rate is greater than 85%) | 5 (Level 5: the growth inhibition rate is greater than 85%) | 5 (Level 5: the growth inhibition rate is greater than 85%) |
| CCC(C)(C)SC(=O)C(C)Oc1nc(F)c(Cl)c(N)c1Cl (stereo not drawn) [Compound 2-100] | 5 (Level 5: the growth inhibition rate is greater than 85%) | 5 (Level 5: the growth inhibition rate is greater than 85%) | 5 (Level 5: the growth inhibition rate is greater than 85%) | 5 (Level 5: the growth inhibition rate is greater than 85%) | 5 (Level 5: the growth inhibition rate is greater than 85%) |
